# According to patent US20030134851A1, “Methods and compositions for providing glutamine” (priority 2001, published 2003):
# Legend:
# [1] = Aqueous N-acetyl-L-glutamine and glutamine heat stability at 100° C. (HPLC); format: physicochemical; details: for Stability during incubation at 100° C. (in words): aqueous solution, 2 hour incubation at 100° C.
# Method: In order to test the stability of aqueous N-acetyl-glutamine upon heating, the following procedure was followed. Aqueous solutions of N-acetyl-L-glutamine (obtained from Sigma, catalog no. A-9125) and glutamine (obtained from Aldrich, catalog no. G-320-2) at approximately 1 mg/mL (5.3 mM and 6.8 mM, respectively) were prepared without pH adjustment. The pH of the resulting N-acetyl-L-glutamine solution was 2.9 and the pH of the glutamine solution was 6.0. The solutions were heated at 100° C. using a Reacti-Therm™ stirring heat block with sealed 4 mL vessels, one for each time point: 15 minutes, 30 minutes, 1 hour and 2 hours. The samples were removed from the heat block and immediately placed into ice until cool. An aliquot of each sample was filtered through 0.45 micrometer filters (Millipore Millex®-HV, 25 mm) for assessment by HPLC. HPLC analysis was conducted using an Inertsil® C8, 5 micrometer, 4.6×250 mm column (obtained from Keystone Scientific, Inc., Bellefonte, Pa.). The mobile phase was water adjusted to pH 2.2 with HCl (isocratic at 1 mL/minute). The injection volume was 10 microliters. Ultraviolet detection was at 214 nm.
# [2] = Aqueous stability at various pH values, ambient temperature (HPLC); format: physicochemical; details: for GLN (glutamine) in glutamine solution / PGA (pyroglutamic acid) in glutamine solution: pH 6.0, 1 mg/mL
# Method: HPLC analysis was conducted using an Inertsil® C8, 5 micrometer, 4.6×250 mm column (obtained from Keystone Scientific, Inc., Bellefonte, Pa.). The mobile phase was water adjusted to pH 2.2 with HCl (isocratic at 1 mL/minute). The injection volume was 10 microliters. Ultraviolet detection was at 214 nm. In order to test the stability of N-acetyl-L-glutamine in aqueous solutions at various pH values, the following procedure was followed. Aqueous solutions of N-acetyl-L-glutamine were prepared in 1 pH unit increments from pH 2.0 to 8.0. The pH of the solutions was adjusted with either hydrochloric acid or sodium hydroxide, as needed, just prior to final dilution (final concentration=1 mg/mL or 5.3 mM N-acetyl-L-glutamine). A single solution of glutamine was not pH adjusted (measured pH=6.0) and was prepared at 1 mg/mL or 6.8 mM glutamine. All solutions were sterile-filtered (Millipore Millex®-GS, 25 mm, 0.22 micrometer pore size, sterile) into autosampler vials and capped for storage at ambient temperature (17-25° C.). N-acetyl-L-glutamine samples were assessed by HPLC at various time points, from 1 to 180 days. The glutamine sample was assessed by HPLC at similar time points, from 1 to 45 days.
# [3] = approx. 1 mg/mL, pH 6.0, 100° C., 30 min
# [4] = approx. 1 mg/mL, pH 6.0, 100° C., 60 min
# [5] = approx. 1 mg/mL, pH 6.0, 100° C., 120 min
# [6] = pH 3.0, ambient temperature, 6 months
structure (smiles),measurement,setting,value
"NC(=O)CC[C@H](N)C(=O)O [Glutamine, glutamine]",GLN (glutamine) in glutamine solution,"[1]; approx. 1 mg/mL (6.8 mM), pH 6.0, 100° C., 0 min",100.0 height %
same,PGA (pyroglutamic acid) in glutamine solution,"[1]; approx. 1 mg/mL, pH 6.0, 100° C., 0 min",none detected
same,GLN (glutamine) in glutamine solution,[1]; [3],90.2 height %
same,PGA (pyroglutamic acid) in glutamine solution,[1]; [3],9.8 height %
same,GLN (glutamine) in glutamine solution,[1]; [4],80.0 height %
same,PGA (pyroglutamic acid) in glutamine solution,[1]; [4],20.0 height %
same,GLN (glutamine) in glutamine solution,[1]; [5],53.6 height %
same,GLU (glutamate) in glutamine solution,[1]; [5],10.6 height %
same,PGA (pyroglutamic acid) in glutamine solution,[1]; [5],35.8 height %
same,Stability during incubation at 100° C. (in words),[1],not stable
same,GLN (glutamine) in glutamine solution,"[2]; ambient temperature, 2 days",100.0 height percent
same,PGA (pyroglutamic acid) in glutamine solution,"[2]; ambient temperature, 2 days",none detected
same,GLN (glutamine) in glutamine solution,"[2]; ambient temperature, 3 days",99.8 height percent
same,PGA (pyroglutamic acid) in glutamine solution,"[2]; ambient temperature, 3 days",0.2 height percent
same,GLN (glutamine) in glutamine solution,"[2]; ambient temperature, 7 days",99.5 height percent
same,PGA (pyroglutamic acid) in glutamine solution,"[2]; ambient temperature, 7 days",0.5 height percent
same,GLN (glutamine) in glutamine solution,"[2]; ambient temperature, 15 days",99.0 height percent
same,PGA (pyroglutamic acid) in glutamine solution,"[2]; ambient temperature, 15 days",1.0 height percent
same,GLN (glutamine) in glutamine solution,"[2]; ambient temperature, 30 days",98.1 height percent
same,PGA (pyroglutamic acid) in glutamine solution,"[2]; ambient temperature, 30 days",1.9 height percent
same,GLN (glutamine) in glutamine solution,"[2]; ambient temperature, 45 days",96.7 height percent
same,PGA (pyroglutamic acid) in glutamine solution,"[2]; ambient temperature, 45 days",3.3 height percent
CC(=O)N[C@@H](CCC(N)=O)C(=O)O [N-acetyl-L-glutamine],NAQ (N-acetyl-L-glutamine) in N-acetyl-L-glutamine solution,"[1]; approx. 1 mg/mL (5.3 mM), pH 2.9, 100° C., 0 min",99.7 area %
same,NAQ (N-acetyl-L-glutamine) in N-acetyl-L-glutamine solution,"[1]; approx. 1 mg/mL, pH 2.9, 100° C., 30 min",98.1 area %
same,NAQ (N-acetyl-L-glutamine) in N-acetyl-L-glutamine solution,"[1]; approx. 1 mg/mL, pH 2.9, 100° C., 60 min",96.9 area %
same,NAQ (N-acetyl-L-glutamine) in N-acetyl-L-glutamine solution,"[1]; approx. 1 mg/mL, pH 2.9, 100° C., 120 min",93.4 area %
same,Stability during incubation at 100° C. (in words),[1],much more stable than glutamine
same,NAE (N-acetyl-L-glutamic acid) in N-acetyl-L-glutamine solution,"[1]; pH 2.9, 100° C., 0 min",0.3 area %
same,"2,6-DPA (2,6-dioxopiperidinylacetamide) in N-acetyl-L-glutamine solution","[1]; pH 2.9, 100° C., 30 min",0.6 area %
same,NAE (N-acetyl-L-glutamic acid) in N-acetyl-L-glutamine solution,"[1]; pH 2.9, 100° C., 30 min",1.2 area %
same,"2,6-DPA (2,6-dioxopiperidinylacetamide) in N-acetyl-L-glutamine solution","[1]; pH 2.9, 100° C., 60 min",1.3 area %
same,NAE (N-acetyl-L-glutamic acid) in N-acetyl-L-glutamine solution,"[1]; pH 2.9, 100° C., 60 min",1.8 area %
same,"2,6-DPA (2,6-dioxopiperidinylacetamide) in N-acetyl-L-glutamine solution","[1]; pH 2.9, 100° C., 120 min",2.7 area %
same,NAE (N-acetyl-L-glutamic acid) in N-acetyl-L-glutamine solution,"[1]; pH 2.9, 100° C., 120 min",3.7 area %
same,PGA (pyroglutamic acid) in N-acetyl-L-glutamine solution,"[1]; pH 2.9, 100° C., 120 min",0.2 area %
same,Degradation of N-acetyl-L-glutamine,"[2]; 1 mg/mL, all pH values (2.0 to 8.0), ambient temperature, through 7 days",no degradation
same,N-acetyl-L-glutamine remaining,"[2]; pH 2.0, ambient temperature, 6 months",55.7%
same,N-acetyl-L-glutamine remaining,"[2]; pH 2.0, ambient temperature, 15 days",97.0%
same,N-acetyl-L-glutamine remaining,"[2]; pH 3.0, ambient temperature, 4 months",94.2%
same,N-acetyl-L-glutamine remaining,[2]; [6],90.4%
same,"N-acetyl-glutamic acid and 2,6-dioxopiperidinylacetamide (approximately equal levels)",[2]; [6],about 5%
same,"N-acetyl-glutamic acid and 2,6-dioxopiperidinylacetamide (approximately equal levels)","[2]; pH 3.0, ambient temperature, 15 days",about 0.15%
same,"N-acetyl-glutamic acid and 2,6-dioxopiperidinylacetamide (approximately equal levels)","[2]; pH 3.0, ambient temperature, 30 days",about 1%
same,N-acetyl-L-glutamine remaining,"[2]; pH 3.0, ambient temperature, through 90 days",> 95%
same,N-acetyl-L-glutamine remaining,"[2]; pH 4.0, ambient temperature, six months",97.9%
same,N-acetyl-L-glutamine remaining,"[2]; pH 5.0 to 8.0, ambient temperature, 6 months",greater than 99.6%
